The CheMixHub drug solubility set

Experiment: xn = mol fraction of the nth substance listed, in the solute-free solvent

COC(=O)C1=C(C)NC(C)=C(C(=O)OCC(C)C)C1c1ccccc1[N+](=O)[O-] (stereo not drawn) + CCOC(C)=O + CC(C)O
solubility (g/100 g solution)
Conditions | 278.15 K | 283.15 K | 288.15 K | 293.15 K | 298.15 K | 303.15 K | 308.15 K | 313.15 K | 318.15 K
x2 = 0.07045 | 3.52 | 4.21 | 5.01 | 5.86 | 6.83 | 7.91 | 9.07 | 10.5 | 11.9
x2 = 0.1457 | 4.03 | 4.67 | 5.54 | 6.46 | 7.55 | 8.74 | 9.96 | 11.4 | 12.9
x2 = 0.2262 | 4.4 | 5.19 | 6.09 | 7.07 | 8.21 | 9.47 | 10.8 | 12.3 | 13.9
x2 = 0.3126 | 4.88 | 5.76 | 6.68 | 7.75 | 8.91 | 10.2 | 11.5 | 13 | 14.7
x2 = 0.4055 | 5.37 | 6.28 | 7.26 | 8.31 | 9.53 | 10.8 | 12.3 | 13.8 | 15.4
x2 = 0.5057 | 5.77 | 6.69 | 7.7 | 8.82 | 10.1 | 11.4 | 12.9 | 14.5 | 16.1
x2 = 0.6141 | 6.12 | 7.09 | 8.13 | 9.25 | 10.6 | 12 | 13.5 | 15.1 | 16.8
x2 = 0.7318 | 6.4 | 7.37 | 8.53 | 9.72 | 11 | 12.5 | 14.1 | 15.7 | 17.5
x2 = 0.8599 | 6.59 | 7.63 | 8.83 | 10 | 11.4 | 12.8 | 14.3 | 16 | 17.8

CCC(C(C)O)n1ncn(-c2ccc(N3CCN(c4ccc(OCC5COC(Cn6cncn6)(c6ccc(F)cc6F)C5)cc4)CC3)cc2)c1=O (stereo not drawn) + CCOC(C)=O + CCO
solubility (g/100 g solution)
Conditions | 273.15 K | 278.15 K | 283.15 K | 288.15 K | 293.15 K | 298.15 K | 303.15 K | 308.15 K | 313.15 K
x2 = 0.05491 | 0.0447 | 0.057 | 0.0728 | 0.0894 | 0.109 | 0.13 | 0.151 | 0.174 | 0.201
x2 = 0.1156 | 0.0657 | 0.084 | 0.104 | 0.125 | 0.148 | 0.173 | 0.2 | 0.229 | 0.264
x2 = 0.1831 | 0.106 | 0.131 | 0.158 | 0.188 | 0.217 | 0.251 | 0.289 | 0.33 | 0.38
x2 = 0.2585 | 0.144 | 0.174 | 0.207 | 0.243 | 0.28 | 0.323 | 0.37 | 0.422 | 0.484
x2 = 0.3434 | 0.162 | 0.191 | 0.227 | 0.265 | 0.308 | 0.358 | 0.417 | 0.486 | 0.561
x2 = 0.4396 | 0.142 | 0.171 | 0.202 | 0.237 | 0.27 | 0.311 | 0.359 | 0.412 | 0.48
x2 = 0.5496 | 0.112 | 0.137 | 0.163 | 0.192 | 0.221 | 0.253 | 0.285 | 0.321 | 0.36
x2 = 0.6765 | 0.0924 | 0.114 | 0.136 | 0.158 | 0.182 | 0.206 | 0.232 | 0.259 | 0.294
x2 = 0.8247 | 0.0667 | 0.0831 | 0.101 | 0.119 | 0.138 | 0.158 | 0.182 | 0.21 | 0.24

COC(=O)C1=C(C)NC(C)=C(C(=O)OCC(C)C)C1c1ccccc1[N+](=O)[O-] (stereo not drawn) + CCOC(C)=O + CCO
solubility (g/100 g solution)
Conditions | 278.15 K | 283.15 K | 288.15 K | 293.15 K | 298.15 K | 303.15 K | 308.15 K | 313.15 K | 318.15 K
x2 = 0.05491 | 3.09 | 3.87 | 4.65 | 5.7 | 6.64 | 8.03 | 9.37 | 11.1 | 12.9
x2 = 0.1156 | 3.98 | 4.79 | 5.78 | 6.75 | 8.13 | 9.47 | 11 | 12.8 | 14.5
x2 = 0.1831 | 4.91 | 5.89 | 6.97 | 8.15 | 9.36 | 10.8 | 12.3 | 14 | 15.7
x2 = 0.2585 | 5.53 | 6.46 | 7.49 | 8.75 | 10 | 11.5 | 13 | 14.7 | 16.6
x2 = 0.3434 | 5.99 | 6.94 | 8.09 | 9.33 | 10.6 | 12 | 13.7 | 15.3 | 17.2
x2 = 0.4396 | 6.34 | 7.36 | 8.52 | 9.66 | 11.2 | 12.6 | 14.2 | 15.9 | 17.7
x2 = 0.5496 | 6.6 | 7.63 | 8.77 | 10.1 | 11.4 | 12.8 | 14.4 | 16.1 | 18
x2 = 0.6765 | 6.76 | 7.78 | 8.91 | 10.2 | 11.5 | 13.1 | 14.7 | 16.3 | 18.2
x2 = 0.8247 | 6.8 | 7.86 | 9.01 | 10.2 | 11.6 | 13.1 | 14.6 | 16.3 | 18.2
